Measurements: ChEMBL document CHEMBL1201862, “PubChem BioAssay data set” (2004)
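Results reflect a 48-hour exposure of cells in 96-well plates to compound at five concentrations. GI50 marks 50% less growth.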 The source made the active and inactive calls. No stated cut-off is given here; in the data, active = GI50 up to about 1.1 µM and inactive = higher.

How the values were obtained:
Experiment in all cases: NCI-60 cell line screen, 48 h
OVCAR-3 = test system: OVCAR-3
HCT-15 = test system: HCT-15
IGROV-1 = test system: IGROV-1
SK-MEL-2 = test system: SK-MEL-2
NCI-H522 = test system: NCI-H522
KM-20L2 = test system: KM-20L2
HT-29 = test system: HT-29
RXF 631 = test system: RXF 631
SNB-78 = test system: SNB-78
CAKI-1 = test system: CAKI-1
NCI-H226 = test system: NCI-H226
SF-268 = test system: SF-268
M19-MEL = test system: M19-MEL
DLD-1 = test system: DLD-1
SK-OV-3 = test system: SK-OV-3
UACC-62 = test system: UACC-62
786-0 = test system: 786-0
CCRF-CEM = test system: CCRF-CEM
SF-539 = test system: SF-539
TK-10 = test system: TK-10
RPMI-8226 = test system: RPMI-8226
A549 = test system: A549
K562 = test system: K562
A498 = test system: A498
SNB-75 = test system: SNB-75
SN12C = test system: SN12C
EKVX = test system: EKVX
HOP-62 = test system: HOP-62
HCC 2998 = test system: HCC 2998
SK-MEL-28 = test system: SK-MEL-28
OVCAR-4 = test system: OVCAR-4
ACHN = test system: ACHN
OVCAR-5 = test system: OVCAR-5
M14 = test system: M14
RXF 393 = test system: RXF 393
Malme-3M = test system: Malme-3M
OVCAR-8 = test system: OVCAR-8
DMS-273 = test system: DMS-273
XF498 = test system: XF498
NCI-H23 = test system: NCI-H23
UACC-257 = test system: UACC-257
COLO 205 = test system: COLO 205
HOP-18 = test system: HOP-18
SNB-19 = test system: SNB-19
UO-31 = test system: UO-31
SK-MEL-5 = test system: SK-MEL-5
LOX IMVI = test system: LOX IMVI
LXFL 529 = test system: LXFL 529
U-251 = test system: U-251
NCI-H460 = test system: NCI-H460
SF-295 = test system: SF-295
KM12 = test system: KM12
MOLT-4 = test system: MOLT-4
HL-60 = test system: HL-60
HCT-116 = test system: HCT-116
HOP-92 = test system: HOP-92
DMS-114 = test system: DMS-114
SR = test system: SR
SW-620 = test system: SW-620

Measured: GI50

CCOC(=O)C1=C(OC(OCC)C(CC)[Se]c2ccccc2)CCCC1 (configuration not stated)
inactive: OVCAR-3 21.1 µM | IGROV-1 26.8 µM | SK-MEL-2 8.32 µM | NCI-H522 14.6 µM | KM-20L2 19.8 µM | HT-29 24.7 µM | RXF 631 10.2 µM | SNB-78 22.3 µM | CAKI-1 37.3 µM | NCI-H226 21.8 µM | SF-268 19 µM | M19-MEL 15.6 µM | DLD-1 17.5 µM | SK-OV-3 > 100 µM | UACC-62 19.8 µM | 786-0 15.6 µM | CCRF-CEM 11.4 µM | SF-539 17.8 µM | TK-10 > 100 µM | RPMI-8226 13 µM | A549 45.3 µM | K562 34.2 µM | A498 > 100 µM | SNB-75 16.9 µM | SN12C 14.6 µM | EKVX 34.4 µM | HOP-62 54.2 µM | HCC 2998 13.4 µM | SK-MEL-28 40.5 µM | OVCAR-4 14.5 µM | ACHN 28.1 µM | OVCAR-5 26.3 µM | M14 15.6 µM | RXF 393 20.5 µM | Malme-3M 16.9 µM | OVCAR-8 19.1 µM | DMS-273 15.1 µM | XF498 20 µM | NCI-H23 10.9 µM | UACC-257 35 µM | COLO 205 34.7 µM | HOP-18 29.7 µM | SNB-19 40.6 µM | UO-31 35.3 µM | SK-MEL-5 12.6 µM | LOX IMVI 4.54 µM | LXFL 529 20.5 µM | U-251 12.6 µM | NCI-H460 36.4 µM | SF-295 19.1 µM | KM12 > 100 µM | MOLT-4 14.7 µM | HL-60 15.9 µM | HCT-116 17.5 µM | HOP-92 21.2 µM
16.9 µM: HCT-15

CC(=O)O/N=C/c1ncccc1OC(C)=O
inactive: OVCAR-3 > 100 µM | IGROV-1 > 100 µM | SK-MEL-2 > 100 µM | NCI-H522 > 100 µM | KM-20L2 > 100 µM | HT-29 > 100 µM | RXF 631 > 100 µM | CAKI-1 > 100 µM | NCI-H226 > 100 µM | SF-268 > 100 µM | M19-MEL > 100 µM | DLD-1 > 100 µM | SK-OV-3 > 100 µM | UACC-62 > 100 µM | DMS-114 > 100 µM | 786-0 > 100 µM | CCRF-CEM > 100 µM | SF-539 > 100 µM | TK-10 > 100 µM | A549 > 100 µM | K562 > 100 µM | A498 > 100 µM | SNB-75 > 100 µM | SN12C > 100 µM | EKVX > 100 µM | SR > 100 µM | HOP-62 > 100 µM | SK-MEL-28 > 100 µM | OVCAR-4 > 100 µM | ACHN > 100 µM | OVCAR-5 > 100 µM | M14 > 100 µM | RXF 393 > 100 µM | Malme-3M > 100 µM | OVCAR-8 > 100 µM | DMS-273 > 100 µM | XF498 > 100 µM | NCI-H23 > 100 µM | UACC-257 > 100 µM | COLO 205 > 100 µM | HOP-18 > 100 µM | SNB-19 > 100 µM | UO-31 > 100 µM | SW-620 > 100 µM | SK-MEL-5 > 100 µM | LOX IMVI > 100 µM | LXFL 529 > 100 µM | U-251 > 100 µM | NCI-H460 > 100 µM | SF-295 > 100 µM | KM12 > 100 µM | MOLT-4 > 100 µM | HL-60 > 100 µM | HCT-116 > 100 µM | HOP-92 > 100 µM
> 100 µM: HCT-15
